# Measurements as given in patent US11542233B2, “Compounds, compositions and methods of use” (Aquinnah Pharmaceuticals, Inc., priority 2016, dated 2023).
# System: TDP-43 aggregation in PC12 cells stably expressing GFP-tagged mutant TDP-43 (TDP-43^Q33IK::eGFP)
# Assay: In vitro efficacy assay: inhibition of TDP-43 inclusions, concentration-response, fluorescence microscopy
# Assay type: cell-based
# Settings: Rattus norvegicus, PC-12, PC12 cells, 1 hour pre-treatment, 15 μM sodium arsenite for 23 hours, 10-point dose response curve
# Procedure: Exemplary compounds of the invention were evaluated for efficacy in inhibiting TDP-43 inclusions using a concentration-response assay. Briefly, PC12 cells stably expressing a GFP-tagged mutant form of TDP-43 (TDP-43^Q33IK::eGFP) were pre-treated for 1 hour with exemplary compounds and stressed with 15 μM sodium arsenite for 23 hours to induce TDP-43 aggregation. The inhibitory effect on TDP-43 aggregation was measured using fluorescence microscopy. The ratio of cells with TDP-43 aggregates was calculated based on the total number of cells with detectable GFP expression. In the table, “A” indicates an IC50 of less than 100 nM, “B” indicates an IC50 range from 100 nM to 500 nM; “C” indicates an IC50 range from 500 nM to 2 μM; and “D” indicates an IC50 greater than 2 μM.
row,IC50 [nM],SMILES
1,< 100,"CCN(C(=O)c1cc2ccccc2[nH]1)[C@H]1COC[C@@H](N[C@@H]2CCc3ccccc32)C1 [Compound 504, N-((3R,5S)-5-(((R)-2,3-dihydro-1H-inden-1-yl)amino)tetrahydro-2H-pyran-3-yl)-N-ethyl-1H-indole-2-carboxamide]"
2,100 to 500,CCN(C(=O)c1cc2ccccc2[nH]1)[C@H]1CCC[C@@H](NCc2nnc(C)o2)C1 [Compound 469]
3,> 2000,"CCN(C(=O)c1cc2ccccc2[nH]1)[C@@H]1COC[C@@H](N[C@@H]2CCc3ccccc32)C1 [Compound 507, N-((3S,5S)-5-(((R)-2,3-dihydro-1H-inden-1-yl)amino)tetrahydro-2H-pyran-3-yl)-N-ethyl-1H-indole-2-carboxamide]"
4,< 100,CCN(C(=O)c1nc2c(F)cccc2[nH]1)[C@H]1CCC[C@@H](NCc2ccccc2)C1 [Compound 482]
5,500 to 2000,CCN(C(=O)c1cc2ccccc2[nH]1)[C@H]1CCC[C@@H](N[C@H](c2ccccc2)C(F)(F)F)C1 [Compound 414]
6,< 100,CCN(C(=O)c1cc2ncccc2[nH]1)[C@H]1CCC[C@@H](NC(C)(C)c2ccc(F)cc2)C1 [Compound 410]
7,< 100,CCN(C(=O)c1cc2ccccc2[nH]1)[C@H]1CCC[C@@H](NCc2cc(C)on2)C1 [Compound 462]
8,< 100,"CCN(C(=O)c1cc2cc(C#N)ccc2[nH]1)[C@H]1CCC[C@@H](NCc2ccc(F)cc2)C1 [Compound 532, 5-cyano-N-ethyl-N-((1S,3R)-3-((4-fluorobenzyl)amino)cyclohexyl)-1H-indole-2-carboxamide]"
9,500 to 2000,CCN(C(=O)c1cc2ncccc2[nH]1)[C@H]1CCC[C@H](NC(C)(C)c2ccc(OC)cc2)C1 [Compound 409]
10,> 2000,CCN(C(=O)c1cc2ncccc2[nH]1)[C@H]1CCC[C@@H](Nc2ccccc2)C1 [Compound 501]
11,< 100,"CCN(C(=O)c1cc2cc(C#N)ccc2[nH]1)[C@H]1CCC[C@@H](NCc2oc3ccccc3c2C#N)C1 [Compound 536, 5-cyano-N-((1S,3R)-3-(((3-cyanobenzofuran-2-yl)methyl)amino)cyclohexyl)-N-ethyl-1H-indole-2-carboxamide]"
12,500 to 2000,CCN(C(=O)c1cc2ccccc2[nH]1)[C@H]1CCC[C@H](NCc2cccnc2)C1 [Compound 109]
13,< 100,CCN(C(=O)c1nc2ccccc2[nH]1)[C@H]1CCC[C@@H](NCc2cc3ccccc3s2)C1 [Compound 490]

# Continued, compound first:
row,SMILES,IC50 [nM]
1,CCN(C(=O)c1cc2ncccc2[nH]1)[C@H]1CCC[C@@H](NCc2c[nH]cn2)C1 [Compound 447],100 to 500
2,CCN(C(=O)c1nc2ccccc2[nH]1)[C@H]1CCC[C@@H](NCc2cc3cc(F)ccc3o2)C1 [Compound 478],< 100
3,CCN(C(=O)c1cc2ncccc2[nH]1)[C@H]1CCC[C@@H](NCc2cnoc2)C1 [Compound 438],> 2000
4,CCN(C(=O)c1nc2cc(C#N)ccc2[nH]1)[C@H]1CCC[C@@H](NCc2ccc(F)cc2)C1 [Compound 519],< 100
5,"C#CCOc1ccc(C(=O)c2ccc(CN[C@@H]3CCC[C@H](N(CC)C(=O)c4cc5ncccc5[nH]4)C3)cc2)cc1 [Compound 463, N-ethyl-N-((1S,3R)-3-((4-(4-(prop-2-yn-1-yloxy)benzoyl)benzyl)amino)cyclohexyl)-1H-pyrrolo[3,2-b]pyridine-2-carboxamide]",< 100
6,C#CCOc1cccc(CN[C@@H]2CCC[C@H](N(CC)C(=O)c3nc4c([N+](=O)[O-])cccc4[nH]3)C2)c1 [Compound 566],< 100
7,CCN(C(=O)c1nc2ccccc2[nH]1)[C@H]1CCC[C@@H](NCc2cc3ncccc3o2)C1 [Compound 491],< 100
8,CCN(C(=O)c1nc2ccccc2[nH]1)[C@H]1CCC[C@@H](NCc2cccc(OC(F)(F)F)c2)C1 [Compound 472],< 100
9,CCN(C(=O)c1nc2cc(C#N)ccc2[nH]1)[C@H]1CCC[C@@H](NCc2cc(C3CC3)on2)C1 [Compound 537],< 100
10,CCN(C(=O)c1cc2ncccc2[nH]1)[C@H]1CCC[C@@H](NCc2ccnc(O)c2)C1 [Compound 434],> 2000
